Tests used:
Format in all cases: cell-based, human
MCF-7 cells [1] = assay: MTT cell viability assay on MCF-7 cells; conditions: for IC50: Homo sapiens, MCF7, 2 h incubation, breast cancer cells, used for both cell lines, read-out: Drug IC50 concentration from MTT survival curves; for Concentrations giving statistically significant decrease in survival: MCF-7, 2 h incubation with anticancer drug, MTT
Method: (§1) Unless otherwise indicated, in experiments, cells were seeded at an appropriate density for the specific assay into 96-well plates or Petri dishes. They were then incubated in standard culture conditions, which included a temperature of 37 °C, 100% relative humidity, and a 5% CO2 incubator. […] After treatment, the cells were washed with PBS and, depending on the experiment, immediately used for measurement or cultured in a fresh medium for 24 or 48 h. Control cells were treated with a corresponding volume of PBS. Additional controls for solvents were also performed.
(§2) The principle of the method is a measurement of the absorbance of formazan, a product of the reduction of the water-soluble tetrazolium salt (MTT) by NADPH-dependent cellular oxidoreductases (mainly succinate dehydrogenase) in living cells. Formazan is insoluble in water and precipitates as purple crystals. The amount of formazan is proportional to the number of living and metabolically active cells.
(§3) After treatment, the cells were washed with PBS and cultured in a fresh medium for 48 h. Subsequently, the medium was aspirated, and an aliquot of 50 µL of 0.05 mg/mL MTT solution was added to each microplate well for 3 h. The formazan crystals were dissolved in dimethyl sulfoxide (DMSO), and the absorbance was measured at a wavelength of λ = 580 nm. The percentage of viable cells was calculated by comparing the absorbance value of the test samples to the absorbance value of the control, taking the absorbance of the control as 100%.

HUVEC-ST cells [2] = assay: MTT cell viability assay on HUVEC-ST cells; conditions: HUVEC-ST, MTT
Method: as §1, §2, §3

MCF-7 cells [3] = assay: Annexin V FITC/propidium iodide double staining in MCF-7 cells; conditions: for Viable cells: docetaxel IC50 alone
Method: as §1
(§4) This assay is based on the principle that, in viable cells, phosphatidylserine (PS) is located in the inner membrane (side facing the cytoplasm). However, upon induction of apoptosis, PS is translocated to the outer membrane (PS also appears on the necrotic cell surface). The exposed phosphatidylserine can be detected by protein Annexin V stained with FITC dye. The addition of propidium iodide (PI) enabled necrotic cells to be distinguished. Thus, this method is convenient for counting and differentiating live cells from those undergoing apoptosis or necrosis.
(§5) The analysis was performed according to the manufacturer’s protocol on cells immediately after the treatment and 24 or 48 h postincubation. Samples were analyzed using the flow cytometer LSR® II from Becton Dickinson (San Jose, CA, USA) using an argon laser with a wavelength of λ = 488 nm.

HUVEC-ST cells [4] = assay: Annexin V FITC/propidium iodide double staining in HUVEC-ST cells; conditions: docetaxel IC50 alone
Method: as §1, §4, §5

MCF-7 cells [5] = assay: Mitochondrial membrane potential (JC-1) in MCF-7 cells; conditions: anticancer drug IC50 alone 2 h, control = 100%
Method: as §1
(§6) The mitochondrial membrane potential was measured with the membrane-permeant JC-1 fluorescent probe. […] Thus, the measurement of the ratio of JC-1 dimer to monomer fluorescence can be used for estimating changes in mitochondrial membrane potential (ΔΨm).
(§7) The cells were then incubated in complete darkness for 30 min at 37 °C. After incubation, the cells were washed to remove the dye and suspended in fresh HBSS solution. Finally, the fluorescence intensity was measured using a Cary Eclipse spectrofluorometer (Varian, Inc.) at λex/em = 475 nm/530 nm for monomers and at λex/em = 535 nm/590 nm for dimers. Subsequently, the ratio of the fluorescence intensities at 530 nm/590 nm was calculated. The mitochondrial potential in both cell lines was measured immediately after incubation with investigated compounds. The results are expressed as a percentage of the control, considered 100%.

HUVEC-ST cells [6] = assay: Mitochondrial membrane potential (JC-1) in HUVEC-ST cells; conditions: anticancer drug IC50 alone 2 h, control = 100%
Method: as §1, §6, §7

[7] = Annexin V FITC/propidium iodide double staining in HUVEC-ST cells; conditions: human, HUVEC-ST cells, doxorubicin IC50 alone, longest postincubation time (48 h), read-out: Viable cells
Method: as §1, §4, §5

HUVEC-ST cells [8] = assay: Alkaline comet assay in HUVEC-ST cells; conditions: doxorubicin IC50 alone, 48 h after incubation
Method: as §1
The comet assay, also known as the single-cell gel electrophoresis assay, is a highly sensitive and versatile method for measuring single- and double-stranded DNA breaks. The assay uses an electric field to move negatively charged DNA fragments through an agarose gel. The amount of migration reflects the level of DNA damage in the cells.
The analysis was performed under alkaline conditions, according to the method of Singh et al., on cells immediately after the treatment and 24 or 48 h postincubation. A suspension of cells was mixed with low-melting-point agarose (LMP type XI) and spread onto a microscope glass slide previously coated with standard melting point agarose (NMP type I). After 2 h of cells lysis in a buffer containing (2.5 mol/L NaCl, 100 mmol/L Na2-EDTA, 10 mmol/L TRIS, 1% Triton X-100), DNA unwinding and electrophoresis were carried out in a buffer containing (1 mmol/L Na2-EDTA, 300 mmol/L NaOH) and (29 V, 30 mA). Before analysis, the slides were stained with DAPI solution (2 μg/mL). One hundred randomly chosen cells were analyzed on each slide using a fluorescence microscope Zeiss Axio Scope A1 (Carl Zeiss, Oberkochen, Germany) with a video camera connected to the image-analysis system Lucia-Comet v. 7.60 (Laboratory Imaging, Praha, Czech Republic).

Compound | IC50 (MCF-7 cells [1]) | Concentrations giving statistically significant decrease in survival (MCF-7 cells [1]) | Decrease in survival at highest concentration (HUVEC-ST cells [2]; 6 µmol/L, 2 h incubation) | Viable cells (MCF-7 cells [3]; 24 h after incubation) | Viable cells (MCF-7 cells [3]; 48 h after incubation) | AV+/PI+ cells (HUVEC-ST cells [4]; 24 h after incubation) | AV+/PI+ cells (HUVEC-ST cells [4]; longest postincubation time (48 h)) | Mitochondrial membrane potential ΔΨm, % of control (MCF-7 cells [5]) | Mitochondrial membrane potential ΔΨm, % of control (HUVEC-ST cells [6]) | Viable cells (MCF-7 cells [1]; MCF-7, doxorubicin 3 µmol/L used alone) | Concentrations giving statistically significant decrease in survival (HUVEC-ST cells [2]; 2 h incubation with anticancer drug) | AV+/PI− cells (undergoing apoptosis) (MCF-7 cells [3]; doxorubicin IC50 alone, 48 h post-incubation) | viability [7] | DNA in the comet tail (HUVEC-ST cells [8])
CC(=O)O[C@@]12CO[C@@H]1C[C@H](O)[C@@]1(C)C(=O)[C@H](O)C3=C(C)[C@@H](OC(=O)[C@H](O)[C@@H](NC(=O)OC(C)(C)C)c4ccccc4)C[C@@](O)([C@@H](OC(=O)c4ccccc4)[C@H]21)C3(C)C [docetaxel] | 100 nM | ≥ 0.02 µmol/L | 20% | 53% | 43% | 23% | 26% | 65% | 54% |  |  |  |  | 
COc1cccc2c1C(=O)c1c(O)c3c(c(O)c1C2=O)C[C@@](O)(C(=O)CO)C[C@@H]3O[C@H]1C[C@H](N)[C@H](O)[C@H](C)O1 [doxorubicin, Doxorubicin] | 3000 nM | ≥ 1 µmol/L |  |  |  |  |  | 57% | 73% | 54% | ≥ 0.5 µmol/L | 12% | 47% | 10%
